Our source for the Ki values is BindingDB's records for doi:10.1016/s0960-894x(00)00478-9 (Laval University, 2001).

The structures appear in SMILES notation.

Assay [1] is described as follows: The compound was evaluated for inhibition of Glutaminyl-tRNA synthetase with respect to glutamine.
The target in assay [2] is Glutamine--tRNA ligase (Escherichia coli) (UniProt P00962). The assay can be described thus: The compound was evaluated for inhibition of Glutaminyl-tRNA synthetase for Escherichia coli with respect to ATP.
Glutamine--tRNA ligase (Escherichia coli), sequence (P00962 whole entry, looked up): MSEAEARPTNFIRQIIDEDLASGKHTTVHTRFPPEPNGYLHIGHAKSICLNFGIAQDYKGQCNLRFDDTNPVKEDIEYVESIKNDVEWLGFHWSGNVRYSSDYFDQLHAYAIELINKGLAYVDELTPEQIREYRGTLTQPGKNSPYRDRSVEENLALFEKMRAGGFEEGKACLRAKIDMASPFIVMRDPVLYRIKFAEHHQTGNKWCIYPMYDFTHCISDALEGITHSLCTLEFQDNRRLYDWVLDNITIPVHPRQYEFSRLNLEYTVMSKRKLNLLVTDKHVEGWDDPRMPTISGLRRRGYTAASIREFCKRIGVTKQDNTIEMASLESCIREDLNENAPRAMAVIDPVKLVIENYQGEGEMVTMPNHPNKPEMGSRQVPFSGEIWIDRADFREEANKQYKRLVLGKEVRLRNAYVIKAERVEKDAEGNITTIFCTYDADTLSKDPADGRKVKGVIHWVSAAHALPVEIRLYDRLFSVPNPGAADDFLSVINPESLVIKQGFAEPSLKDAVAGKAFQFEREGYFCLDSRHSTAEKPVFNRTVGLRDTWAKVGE

One may read the Ki as the equilibrium dissociation constant of an inhibitor or competing ligand from its target. As for `NC(=O)CCC(N)COP(=O)(O)OC[C@H]1OC(n2cnc3c(N)ncnc32)[C@H](O)[C@@H]1O` (some centres not stated), the inhibitory constant (Ki) in assay [1] was found to be 280 nM; in assay [2], 860 nM.
